Measured values published in patent publication US11352400B2, “PI3K gamma inhibitor peptide for treatment of respiratory system diseases” (Kither Biotech S.r.I., priority 2014, dated 2022).

What was measured:
PDE4B = test: Phosphodiesterase activity in anti-PDE4B immunoprecipitates from treated tracheal smooth muscle cells; type: cell-based, mouse; settings: tracheal smooth muscle cells of wild-type mice (PI3Kγ+/+); 50 μM, 30 minutes
Protocol: (§1) For protein extraction from murine tracheal smooth muscle cells (mTSMCs) and human bronchial smooth muscle cells (hBSMCs), cells were treated with the indicated drugs/peptides and immediately lysed in cold lysis buffer containing 120 mmol/L NaCl, 50 mmol/L Tris-HCl (pH 8.0), complete protease inhibitors (Roche Applied Science, Indianapolis, Ind.) and phosphatase inhibitors (50 mmol/L sodium fluoride, 1 mmol/L sodium orthovanadate and 10 mmol/L sodium pyrophosphate). After 30 min of incubation on ice, lysates were centrifuged at 13000 rpm for 10 min at 4° C. and used for either Western blotting or subjected to immunoprecipitation and measurements of phosphodiesterase activity. […]
(§2) Phosphodiesterase activity in immunoprecipitates was measured according to the two-step method of Thompson and Appleman, as previously described (2), with minor modifications. […] The amount of radiolabeled adenosine in the supernatant was quantified by scintillation counting (Ultima Gold liquid scintillation from Perkin Elmer, Waltham, Mass.).
(§3) Murine tracheal smooth muscle cells were cultured from explants of trachea using previously described methods with modifications. […] More than 90% of these cells were smooth muscle cells, as determined by immunofluorescence performed with an antibody specific for smooth muscle actin. […]

PDE4D = test: Phosphodiesterase activity in anti-PDE4D immunoprecipitates from treated tracheal smooth muscle cells; type: cell-based, mouse; settings: tracheal smooth muscle cells of wild-type mice (PI3Kγ+/+); 50 μM, 30 minutes
Protocol: as §1, §2, §3

[1] = system: lung inflammation in mice sensitized with ovalbumin; test: Analysis of airway inflammation in asthmatic mice; type: in vivo, BALB/C mice; settings: OVA-sensitized mice, vs P1
Protocol: Ovalbumin (100 μg) (OVA, Sigma-Aldrich, St. Louis, Mo.), complexed with aluminum potassium sulfate (1 mg, alum) was administered intraperitoneally (i.p.) on days 1 and 14, and intra-nasally (i.n.) (50 μg OVA in 50 μl PBS) on days 14, 25, 26, and 27. Control mice received i.p. injections of alum and i.n. injections of PBS only. Airway hyperreactivity induced by inhaled methacholine was measured at 24 hours after the final dose of OVA (Day 28).
Wild-type BALB/C mice were treated, by intra-tracheal instillation, with 25 μg of the Trojan peptide derived from PI3Kγ or equimolar amounts of P1 control peptide, in a final volume of 70 μL of phosphate-buffered saline (PBS), before each intranasal administration of ovalbumin (days 14, 25, 26, and 27 of the protocol of immunization with ovalbumin). At 24 hours after the final injection (day 28), mice were anesthetized (sodium pentobarbital, 70-90 mg/kg, i.p.) and the tracheas incised and cannulated. The airways were washed with 2.5 ml of phosphate-buffered saline solution (PBS). The total number of cells in the bronchoalveolar lavage (BAL) was determined with a Neubauer hemocytometer. A volume of 50 μL of BAL was centrifuged onto cytospin glass slides at 400 rpm at room temperature for 5 minutes and stained with a Diff-Quick system (LabAids, Ronkonkoma, USA). A total of 100 cells per slide were counted and classified as neutrophils, macrophages, lymphocytes and eosinophils on the basis of morphological criteria. Erythrocytes and epithelial cells were ignored and the results were expressed as cells/ml.
To assess the peribronchial inflammation, the lungs of a group of animals that had not been subjected to bronchoalveolar lavage were explanted, fixed in a solution of 4% paraformaldehyde (PFA) for 24 hours at 4° C. and embedded in paraffin. Slices that were 5 μm-thick, deparaffinized, stained with a hematoxylin-eosin solution (Bio-Optica, Milano, Italy), dehydrated and mounted with glass coverslips. The extent of peribronchial inflammation was classified as follows: 0—normal; 1—few inflammatory cells; 3—a thick ring of inflammatory cells.
To evaluate the presence of goblet cells, lung slices were stained with periodic acid-Schiff's reagent (PAS) (Bio-Optica, Milano, Italy) and the percentage of PAS-positive cells was calculated by counting the number of PAS-positive epithelial cells and total epithelial cells.

[2] = 25 μg/mouse intra-tracheal before each intranasal OVA

Q: “RQIKIWFQNRRMKWKKGKATHRSPGQIHLVQRHPPSEESQAF (fusion peptide comprising SEQ ID No.1 and SEQ ID No.3) [Trojan peptide derived from PI3Kγ]” was tested. Which “catalytic activity of PDE4B” value (PDE4B) did it give?
A: The value was “significantly reduced”.

Q: What about the “catalytic activity of PDE4D” value (PDE4D) of the same sequence?
A: The value was “significantly reduced”.

Q: And the “number of goblet cells (PAS-positive)” value [1, 2]?
A: The value was “significantly reduced”.

Q: And the “number of neutrophils in the bronchoalveolar lavage” value [1, 2]?
A: The value was “significantly lower”.

Q: What about the peribronchial inflammatory infiltrate [1, 2] of the same sequence?
A: The peribronchial inflammatory infiltrate was “significantly reduced”.

Q: And the “eosinophils in the bronchoalveolar lavage” value ([1]; 25 μg/mouse)?
A: The value was “unchanged”.

Q: And the “lymphocytes in the bronchoalveolar lavage” value ([1]; 25 μg/mouse)?
A: The value was “unchanged”.

Q: What about the “macrophages in the bronchoalveolar lavage” value ([1]; 25 μg/mouse) of the same sequence?
A: The value was “unchanged”.
